Test system: Landrace x Large White reserve sows
Assay: Heat detection: estrus rate and estrus time in gilts, different doses (Example 2)
Format: in vivo, pigs
From the text: Landrace x Large White reserve sows, about 230 days old, were randomly divided into a batch farrowing with FTAI and batch farrowing with FTAI combined with different doses of 1-[bis(4-cyanophenyl)methyl]-1,2,4-triazole groups, and during the experiment, the experimental sows in each group were fed regularly and gained free access to water according to the requirements of feeding management in the farm.
Referring to the dosage of 1-[bis(4-cyanophenyl)methyl]-1,2,4-triazole in clinical medicine and using standard weight-dosage conversion, the recommended dosage of 1-[bis(4-cyanophenyl)methyl]-1,2,4-triazole for sows was 50-150 μg/kg·BW/day, orally for consecutive 5 days, as derived by conversion. In addition, the applicant previously studied uniparous cows, and in the ovulation induction scheme, the reference dosage of 1-[bis(4-cyanophenyl)methyl]-1,2,4-triazole was 60-200 μg/kg·BW, administered in a single dose; furthermore, by means of conversion in conjunction with the dosage for model animals (mice) previously in the laboratory, various dosages were designed. The treatment methods of hormones and drugs for sows in each group were as follows: • batch farrowing with FTAI: the sows were fed with an altrenogest oral solution at 20 mg/animal at the same time every day, for 18 days; PMSG at 1000 IU/animal was injected intramuscularly 42 h after the last feeding with altrenogest, GnRH at 100 μg/animal was injected intramuscularly 80 h after the injection of PMSG, a first timed insemination was performed 24 h after the injection of GnRH, and a second timed insemination was performed 16 h after the first insemination.
Treatment group 1: the hormone treatment and mating schemes for gilts were the same as FTAI. The difference lay in that PMSG at 1000 IU/gilt was injected intramuscularly 42 h after the last feeding with altrenogest, and 1-[bis(4-cyanophenyl)methyl]-1,2,4-triazole at 12 μg/kg·BW/day was administered orally 8 h after the injection of PMSG, for 1 day.
Treatment group 2: the hormone treatment and mating schemes for gilts were the same as FTAI. The difference lay in that PMSG at 1000 IU/gilt was injected intramuscularly 42 h after the last feeding with altrenogest, and 1-[bis(4-cyanophenyl)methyl]-1,2,4-triazole at 12 μg/kg·BW/day was administered orally 8 h after the injection of PMSG, for 2 days.
Treatment group 3: the hormone treatment and mating schemes for gilts were the same as FTAI. The difference lay in that PMSG at 1000 IU/gilt was injected intramuscularly 42 h after the last feeding with altrenogest, and 1-[bis(4-cyanophenyl)methyl]-1,2,4-triazole at 20 μg/kg·BW/day was administered orally 8 h after the injection of PMSG, for 1 day.
Treatment group 4: the hormone treatment and mating schemes for sows were the same as FTAI. The difference lay in that PMSG at 1000 IU/gilt was injected intramuscularly 42 h after the last feeding with altrenogest, and 1-[bis (4-cyanophenyl)methyl]-1,2,4-triazole at 20 μg/kg·BW/day was administered orally 8 h after the injection of PMSG, for 2 days.
Treatment group 5: the hormone treatment and mating schemes for gilts were the same as FTAI. The difference lay in that PMSG at 1000 IU/animal was injected intramuscularly 42 h after the last feeding with altrenogest, and 1-[bis(4-cyanophenyl)methyl]-1,2,4-triazole at 20 μg/kg·BW/day was administered orally 8 h after the injection of PMSG, for 3 days.
Treatment group 6: the hormone treatment and mating schemes for gilts were the same as FTAI. The difference lay in that PMSG at 1000 IU/animal was injected intramuscularly 42 h after the last feeding with altrenogest, and 1-[bis(4-cyanophenyl)methyl]-1,2,4-triazole at 20 μg/kg·BW/day was administered orally 8 h after the injection of PMSG, for 5 days.
Treatment group 7: the hormone treatment and mating schemes for gilts were the same as FTAI. […]

N#Cc1ccc(C(c2ccc(C#N)cc2)n2cncn2)cc1 [1-[bis(4-cyanophenyl)methyl]-1,2,4-triazole]
Number of estrous animals at different times after stopping Altrenogest (day/animal) (day 5.5, Example 2 Treatment group 5: 20 μg/kg·BW/day orally, 3 days, gilts): 6 animal
Number of estrous animals at different times after stopping Altrenogest (day/animal) (day 5.5, Example 2 Treatment group 6: 20 μg/kg·BW/day orally, 5 days, gilts): 0 animal
Number of estrous animals at different times after stopping Altrenogest (day/animal) (day 5.5, Example 2 Treatment group 7: 40 μg/kg·BW/day orally, 1 day, gilts): 2 animal
Number of estrous animals at different times after stopping Altrenogest (day/animal) (day 5.5, Example 2 Treatment group 8: 40 μg/kg·BW/day orally, 5 days, gilts): 0 animal
Number of estrous animals at different times after stopping Altrenogest (day/animal) (day 6, Example 2 Treatment group 1: 12 μg/kg·BW/day orally, 1 day, gilts): 8 animal
Number of estrous animals at different times after stopping Altrenogest (day/animal) (day 6, Example 2 Treatment group 2: 12 μg/kg·BW/day orally, 2 days, gilts): 7 animal
Number of estrous animals at different times after stopping Altrenogest (day/animal) (day 6, Example 2 Treatment group 3: 20 μg/kg·BW/day orally, 1 day, gilts): 7 animal
Number of estrous animals at different times after stopping Altrenogest (day/animal) (day 6, Example 2 Treatment group 4: 20 μg/kg·BW/day orally, 2 days, gilts): 6 animal
Number of estrous animals at different times after stopping Altrenogest (day/animal) (day 6, Example 2 Treatment group 5: 20 μg/kg·BW/day orally, 3 days, gilts): 7 animal
Number of estrous animals at different times after stopping Altrenogest (day/animal) (day 6, Example 2 Treatment group 6: 20 μg/kg·BW/day orally, 5 days, gilts): 5 animal
Number of estrous animals at different times after stopping Altrenogest (day/animal) (day 6, Example 2 Treatment group 7: 40 μg/kg·BW/day orally, 1 day, gilts): 2 animal
Number of estrous animals at different times after stopping Altrenogest (day/animal) (day 6, Example 2 Treatment group 8: 40 μg/kg·BW/day orally, 5 days, gilts): 2 animal
Number of estrous animals at different times after stopping Altrenogest (day/animal) (day 6.5, Example 2 Treatment group 1: 12 μg/kg·BW/day orally, 1 day, gilts): 4 animal
Number of estrous animals at different times after stopping Altrenogest (day/animal) (day 6.5, Example 2 Treatment group 2: 12 μg/kg·BW/day orally, 2 days, gilts): 3 animal
Number of estrous animals at different times after stopping Altrenogest (day/animal) (day 6.5, Example 2 Treatment group 3: 20 μg/kg·BW/day orally, 1 day, gilts): 5 animal
Number of estrous animals at different times after stopping Altrenogest (day/animal) (day 6.5, Example 2 Treatment group 4: 20 μg/kg·BW/day orally, 2 days, gilts): 4 animal
Number of estrous animals at different times after stopping Altrenogest (day/animal) (day 6.5, Example 2 Treatment group 5: 20 μg/kg·BW/day orally, 3 days, gilts): 3 animal
Number of estrous animals at different times after stopping Altrenogest (day/animal) (day 6.5, Example 2 Treatment group 6: 20 μg/kg·BW/day orally, 5 days, gilts): 3 animal
Number of estrous animals at different times after stopping Altrenogest (day/animal) (day 6.5, Example 2 Treatment group 7: 40 μg/kg·BW/day orally, 1 day, gilts): 9 animal
Number of estrous animals at different times after stopping Altrenogest (day/animal) (day 6.5, Example 2 Treatment group 8: 40 μg/kg·BW/day orally, 5 days, gilts): 2 animal
Number of estrous animals at different times after stopping Altrenogest (day/animal) (day 7, Example 2 Treatment group 1: 12 μg/kg·BW/day orally, 1 day, gilts): 5 animal
Number of estrous animals at different times after stopping Altrenogest (day/animal) (day 7, Example 2 Treatment group 2: 12 μg/kg·BW/day orally, 2 days, gilts): 3 animal
Number of estrous animals at different times after stopping Altrenogest (day/animal) (day 7, Example 2 Treatment group 3: 20 μg/kg·BW/day orally, 1 day, gilts): 2 animal
Number of estrous animals at different times after stopping Altrenogest (day/animal) (day 7, Example 2 Treatment group 4: 20 μg/kg·BW/day orally, 2 days, gilts): 2 animal
Number of estrous animals at different times after stopping Altrenogest (day/animal) (day 7, Example 2 Treatment group 5: 20 μg/kg·BW/day orally, 3 days, gilts): 3 animal
Number of estrous animals at different times after stopping Altrenogest (day/animal) (day 7, Example 2 Treatment group 6: 20 μg/kg·BW/day orally, 5 days, gilts): 8 animal
Number of estrous animals at different times after stopping Altrenogest (day/animal) (day 7, Example 2 Treatment group 7: 40 μg/kg·BW/day orally, 1 day, gilts): 0 animal
Number of estrous animals at different times after stopping Altrenogest (day/animal) (day 7, Example 2 Treatment group 8: 40 μg/kg·BW/day orally, 5 days, gilts): 0 animal
Number of estrous animals at different times after stopping Altrenogest (day/animal) (day 7.5, Example 2 Treatment group 1: 12 μg/kg·BW/day orally, 1 day, gilts): 1 animal
Number of estrous animals at different times after stopping Altrenogest (day/animal) (day 7.5, Example 2 Treatment group 2: 12 μg/kg·BW/day orally, 2 days, gilts): 1 animal
Number of estrous animals at different times after stopping Altrenogest (day/animal) (day 7.5, Example 2 Treatment group 3: 20 μg/kg·BW/day orally, 1 day, gilts): 1 animal
Number of estrous animals at different times after stopping Altrenogest (day/animal) (day 7.5, Example 2 Treatment group 4: 20 μg/kg·BW/day orally, 2 days, gilts): 1 animal
Number of estrous animals at different times after stopping Altrenogest (day/animal) (day 7.5, Example 2 Treatment group 5: 20 μg/kg·BW/day orally, 3 days, gilts): 2 animal
Number of estrous animals at different times after stopping Altrenogest (day/animal) (day 7.5, Example 2 Treatment group 6: 20 μg/kg·BW/day orally, 5 days, gilts): 1 animal
Number of estrous animals at different times after stopping Altrenogest (day/animal) (day 7.5, Example 2 Treatment group 7: 40 μg/kg·BW/day orally, 1 day, gilts): 9 animal
Number of estrous animals at different times after stopping Altrenogest (day/animal) (day 7.5, Example 2 Treatment group 8: 40 μg/kg·BW/day orally, 5 days, gilts): 0 animal
Number of estrous animals at different times after stopping Altrenogest (day/animal) (day 8, Example 2 Treatment group 1: 12 μg/kg·BW/day orally, 1 day, gilts): 0 animal
Number of estrous animals at different times after stopping Altrenogest (day/animal) (day 8, Example 2 Treatment group 2: 12 μg/kg·BW/day orally, 2 days, gilts): 0 animal
Number of estrous animals at different times after stopping Altrenogest (day/animal) (day 8, Example 2 Treatment group 3: 20 μg/kg·BW/day orally, 1 day, gilts): 0 animal
Number of estrous animals at different times after stopping Altrenogest (day/animal) (day 8, Example 2 Treatment group 4: 20 μg/kg·BW/day orally, 2 days, gilts): 0 animal
Number of estrous animals at different times after stopping Altrenogest (day/animal) (day 8, Example 2 Treatment group 5: 20 μg/kg·BW/day orally, 3 days, gilts): 1 animal
Number of estrous animals at different times after stopping Altrenogest (day/animal) (day 8, Example 2 Treatment group 6: 20 μg/kg·BW/day orally, 5 days, gilts): 2 animal
Number of estrous animals at different times after stopping Altrenogest (day/animal) (day 8, Example 2 Treatment group 7: 40 μg/kg·BW/day orally, 1 day, gilts): 0 animal
Number of estrous animals at different times after stopping Altrenogest (day/animal) (day 8, Example 2 Treatment group 8: 40 μg/kg·BW/day orally, 5 days, gilts): 0 animal
estrus on the 8th day after altrenogest was stopped (gilts, 80 and 160 μg/kg·BW/day for 5 consecutive days (treatment groups 9 and 10)): no estrus
estrus rate (gilts, high dose or multiple (5) low doses (treatment groups 6, 8, 9, and 10)): decreased estrus rate or even no estrus
estrus rate (gilts, low dose (treatment groups 1, 2, 3, 4, 5, and 7), compared with FTAI group): not significantly different
estrus in sows (high-dose): inhibited
gilt estrus rate (low-dose, batch farrowing with FTAI): no significant change

From patent publication US12678488B2, “Batch management method for improving farrowing rate or number of piglets born alive in swine” (priority 2024, dated 2026)
